This passage reports cytotoxicity results from patent US20230201426A1, “GEL COMPOSITION AND PRODUCTION METHOD THEREFOR, AND THREE-DIMENSIONAL TISSUE BODY AND PRODUCTION METHOD THEREFOR” (TOPPAN INC., priority 2020, published 2023).

This data set relates to human mammary gland cancer cells (MDA-MB-231). In words: Viability of cells cultured after mixing the cell suspension with the Pt^2+ solution alone. Type of data set: cell-based. The conditions noted are these: final concentration of Pt^2+ 0.05 mM to 0.5 mM.

Regarding `[Cl][Pt-2]([Cl])([Cl])[Cl].[K+].[K+]` [Pt^2+ solution, Potassium tetrachloroplatinate(II) (K2PtCl4)], the cytotoxicity result was “significant cytotoxicity was not recognized”.
